Assay results: patent US20230345940A1, “INSECTICIDE” (Western Sydney University, priority 2020, published 2023)
Several values for one entry are separate records, joined by “and”; a condition that tells them apart may be missing. Equal entries are not always repeated.

Legend:
[1] = tested on: Aphis gossypii adults and nymphs; test: Field trial on cotton crop; type: in vivo; details: extract at 1.0%, clothianidin at 125 mL/ha
Protocol: A trial was conducted on an irrigated commercial Bollgard II cotton crops (Sicot 74 variety) at the Australian Cotton Research Institute (ACM) in Narrabri NSW, Australia. The cotton crop used for the study comprised mature plants close to cut-out and were contaminated with Aphis gossypii from infested leaves collected from a nearby commercial cotton field at Yarral, Narrabri NSW, Australia.
[…] Each replicated plot measured 2 m (2 rows) wide and 1 m long with 2 m (rows) buffer between replicated plots. Three plants in each treatment replicate with terminals infested with aphids were randomly selected and terminals tagged for pre- and post-treatment assessments.
The control was sprayed with 100 ppm Triton-X 100 in water only.
Foliar application of each treatment was performed, applying the control first, then the plant extract, and finally the industry standard. Each treatment was applied to run-off using a small hand-held pressure sprayer fitted with flat fan nozzles delivering a droplet size of 200 μm (equivalent to field application of 100 L/ha). The decision to apply the treatment was made based on the IPM Guidelines and CottonLogic recommended economic threshold of 50% of plant terminals infested.
The number of A. gossypii and beneficial species (mainly predatory insects) were assessed by visually counting A. gossypii adults and nymphs and beneficials on the upper and undersides of leaves from the 3-4 nodes below the tagged plant terminals. Pre-treatment counts were made 24 h before treatment and post treatment counts on 1, 2, 5, 6, 7, 8, 9, 12 and 14 days after treatment (DAT).
The data for both A. gossypii adults and nymphs as well as predatory insects were each initially expressed as numbers per terminal. Data were calculated as percentage reduction of population compared to the pre-treatment count.
Means of data on population reduction were compared using one-way ANOVA, after confirming normality, using SPSS v21. Significance was normally set at 5% (α=0.05), and when there was significance, means were separated using Duncan's Multiple range test.

[2] = tested on: adult foraging workers of Apis mellifera; test: Acute toxicity to honey bees, Potter Spray Tower; type: in vivo; details: for Knockdown (K), no. of bees / Mortality (D), no. of bees: n = 10, extract 1.0% w/v, bifenthrin 0.05% w/v
Protocol: The laboratory-based bioassay was performed to assess the acute toxicity of the extracts against adult foraging workers of Apis mellifera. 3 mL aliquots of P. jaceoides extract were applied at 1.0% a.i. w/v via a Potter Spray Tower, using the methodology previously described for the preparation and application of this plant extract to test insects.
Bifenthrin (CAS No 82657-04-3) 97.0% technical (Batch 50118) was sourced from Dr. Ehrenstorfer GmbH D-86190 Augsburg, Germany. A 0.05% w/v a.i. concentration was prepared by dissolving 0.013 g bifenthrin in 1 mL acetone, sonicating for 5 min and then diluted in a 25 mL volumetric flask with 200 ppm Triton X-100 in distilled water. It was applied using a 3 mL aliquot of the 0.05% a.i via a Potter Spray Tower; this concentration was based on recommended label rate in cotton. The control comprised 5 mL acetone and water-Triton X-100 mixture only; two controls were conducted.
Apis mellifera foraging workers for bioassay were collected from a strong, healthy hive at Western Sydney University apiary, at Richmond NSW, Australia, by blocking the hive entrance for 1 min and collecting foragers with a sweep net.
They were immediately transferred to a mesh cage (25×33×33 cm) and maintained in the laboratory at 24° C., where they were fed ad libidum sugar:water 1:1 w/v from cotton wool placed on the mesh at the top of the cage until bioassay, which was undertaken within 1 h of bee collection. Bees for bioassay were randomly collected from the cage using a 120 mL plastic specimen tube, and anaesthetised with medical grade CO2 for 30 s, then ten bees were placed on a 90 mm diameter Petri dish lined with filter paper. The dish with the bees was placed on the Potter Spray Tower stage, and the respective treatment applied, commencing with the control and finishing with bifenthrin treatment.
Immediately after treatment, the treated bees were gently transferred to 250 mL glass beakers, fine nylon mesh was fitted to the top with a rubber band, and the bees fed were sugar:water as above and maintained at 26° C. in very low light. Bee activity was regularly observed and recorded, at 10 min intervals until 420 min (viz. 7 HAT), then less frequently until 48 HAT. By this time, there was bee mortality in both controls, so the investigation was terminated. Data recorded were signs of intoxication, knockdown (K) and mortality (D).

## CN/C(=N\[N+](=O)[O-])NCc1cnc(Cl)s1 [Clothianidin]
[1]; mean of plots 1-4
  % Reduction from pre-treatment count, Mean of plots, 1 DAT: 54.65%
  % Reduction from pre-treatment count, Mean of plots, 2 DAT: 77.18%
  % Reduction from pre-treatment count, Mean of plots, 5 DAT: 85.08a, b %
  % Reduction from pre-treatment count, Mean of plots, 6 DAT: 84.83%
  % Reduction from pre-treatment count, Mean of plots, 7 DAT: 77.88%
  % Reduction from pre-treatment count, Mean of plots, 14 DAT: 82.08%
[1]; per plot, single spray
  % Reduction from pre-treatment count (mean of 3 plants), 2 DAT: 55.1% and 92.9% and 64.4% and 96.3%
  % Reduction from pre-treatment count (mean of 3 plants), 5 DAT: 75.0% and 78.6% and 97.8% and 88.9%
  % Reduction from pre-treatment count (mean of 3 plants), 6 DAT: 84.6% and 64.3% and 97.8% and 92.6%
  % Reduction from pre-treatment count (mean of 3 plants), 14 DAT: 97.8% and 78.6% and 77.8% and 74.1%

## Cc1c(COC(=O)[C@@H]2[C@H](/C=C(\Cl)C(F)(F)F)C2(C)C)cccc1-c1ccccc1 (racemic) [Bifenthrin]
[2]; 0.05% w/v a.i.
  knockdown commenced: 10 MAT
  mortality commenced: 90 MAT
  time of 50% bee knockdown: 45-50 MAT
  time of 50% mortality: 240 MAT
[2]; 10 min
  Knockdown (K), no. of bees: 1K
[2]; 20 min
  Knockdown (K), no. of bees: 1K
[2]; 30 min
  Knockdown (K), no. of bees: 2K
[2]; 40 min
  Knockdown (K), no. of bees: 3K
[2]; 45 min
  Knockdown (K), no. of bees: 4K
[2]; 50 min
  Knockdown (K), no. of bees: 6K
[2]; 60 min
  Knockdown (K), no. of bees: 6K
[2]; 70 min
  Knockdown (K), no. of bees: 6K
[2]; 80 min
  Knockdown (K), no. of bees: 6K
[2]; 90 min
  Knockdown (K), no. of bees: 5
  Mortality (D), no. of bees: 1
[2]; 100 min
  Knockdown (K), no. of bees: 3K, 3D
  Mortality (D), no. of bees: 3K, 3D
[2]; 110 min
  Knockdown (K), no. of bees: 4K,
[2]; 120 min
  Knockdown (K), no. of bees: 4K,
[2]; 130 min
  Knockdown (K), no. of bees: 4K,
[2]; 140 min
  Knockdown (K), no. of bees: 3
  Mortality (D), no. of bees: 4
[2]; 150 min
  Knockdown (K), no. of bees: 3
  Mortality (D), no. of bees: 4
[2]; 160 min
  Knockdown (K), no. of bees: 4K, 4D
  Mortality (D), no. of bees: 4K, 4D
[2]; 170 min
  Knockdown (K), no. of bees: 4K, 4D
  Mortality (D), no. of bees: 4K, 4D
[2]; 180 min
  Knockdown (K), no. of bees: 4K, 4D
  Mortality (D), no. of bees: 4K, 4D
[2]; 190 min
  Knockdown (K), no. of bees: 4K, 4D
  Mortality (D), no. of bees: 4K, 4D
[2]; 200 min
  Knockdown (K), no. of bees: 4K, 4D
  Mortality (D), no. of bees: 4K, 4D
[2]; 210 min
  Knockdown (K), no. of bees: 4K, 4D
  Mortality (D), no. of bees: 4K, 4D
[2]; 220 min
  Knockdown (K), no. of bees: 5
  Mortality (D), no. of bees: 4
[2]; 230 min
  Knockdown (K), no. of bees: 5
  Mortality (D), no. of bees: 4
[2]; 240 min
  Knockdown (K), no. of bees: 4
  Mortality (D), no. of bees: 5
[2]; 250 min
  Knockdown (K), no. of bees: 3
  Mortality (D), no. of bees: 6
[2]; 260 min
  Knockdown (K), no. of bees: 3
  Mortality (D), no. of bees: 6
[2]; 270 min
  Knockdown (K), no. of bees: 3
  Mortality (D), no. of bees: 6
[2]; 280 min
  Knockdown (K), no. of bees: 3
  Mortality (D), no. of bees: 6
[2]; 290 min
  Knockdown (K), no. of bees: 3
  Mortality (D), no. of bees: 6
[2]; 300 min
  Knockdown (K), no. of bees: 3
  Mortality (D), no. of bees: 6
[2]; 310 min
  Knockdown (K), no. of bees: 3
  Mortality (D), no. of bees: 6
[2]; 320 min
  Knockdown (K), no. of bees: 3
  Mortality (D), no. of bees: 6
[2]; 330 min
  Knockdown (K), no. of bees: 1
  Mortality (D), no. of bees: 8
[2]; 340 min
  Knockdown (K), no. of bees: 1
  Mortality (D), no. of bees: 8
[2]; 350 min
  Knockdown (K), no. of bees: 1
  Mortality (D), no. of bees: 8
[2]; 360 min
  Knockdown (K), no. of bees: 1
  Mortality (D), no. of bees: 8
[2]; 370 min
  Knockdown (K), no. of bees: 1
  Mortality (D), no. of bees: 8
[2]; 380 min
  Knockdown (K), no. of bees: 1
  Mortality (D), no. of bees: 8
[2]; 390 min
  Knockdown (K), no. of bees: 0
  Mortality (D), no. of bees: 9
[2]; 400 min
  Knockdown (K), no. of bees: 0
  Mortality (D), no. of bees: 9
[2]; 410 min
  Knockdown (K), no. of bees: 0
  Mortality (D), no. of bees: 9
[2]; 420 min
  Knockdown (K), no. of bees: 0
  Mortality (D), no. of bees: 9
[2]; 450 min
  Knockdown (K), no. of bees: 0
  Mortality (D), no. of bees: 9
[2]; 480 min
  Mortality (D), no. of bees: 10D
[2]; by 480 MAT, 0.05% w/v a.i.
  mortality: 100%
